Reference: patent US12559506B2, “Indazole based compounds and associated methods of use” (Arvinas Operations, Inc., priority 2021, dated 2026)

Assays:
G2019S LRRK2 = target: T1, G2019S LRRK2 (Homo sapiens, UniProt Q5S007, G2019S); experiment: LRRK2 degradation assay, HiBit-tagged G2019S LRRK2 expressed from plasmid in HEK293 cells (Nano-Glo Dual-Luciferase); type: cell-based; conditions: HiBit-tagged G2019S LRRK2 in HEK293 cells, 24 hours
T1 construct: expressed in transfected cells; host or cells: HEK293 (ATCC CRL-1573), transient transfection, mammalian expression vector with ubiquitin promoter
T1 sequence (Q5S007 whole entry G2019S): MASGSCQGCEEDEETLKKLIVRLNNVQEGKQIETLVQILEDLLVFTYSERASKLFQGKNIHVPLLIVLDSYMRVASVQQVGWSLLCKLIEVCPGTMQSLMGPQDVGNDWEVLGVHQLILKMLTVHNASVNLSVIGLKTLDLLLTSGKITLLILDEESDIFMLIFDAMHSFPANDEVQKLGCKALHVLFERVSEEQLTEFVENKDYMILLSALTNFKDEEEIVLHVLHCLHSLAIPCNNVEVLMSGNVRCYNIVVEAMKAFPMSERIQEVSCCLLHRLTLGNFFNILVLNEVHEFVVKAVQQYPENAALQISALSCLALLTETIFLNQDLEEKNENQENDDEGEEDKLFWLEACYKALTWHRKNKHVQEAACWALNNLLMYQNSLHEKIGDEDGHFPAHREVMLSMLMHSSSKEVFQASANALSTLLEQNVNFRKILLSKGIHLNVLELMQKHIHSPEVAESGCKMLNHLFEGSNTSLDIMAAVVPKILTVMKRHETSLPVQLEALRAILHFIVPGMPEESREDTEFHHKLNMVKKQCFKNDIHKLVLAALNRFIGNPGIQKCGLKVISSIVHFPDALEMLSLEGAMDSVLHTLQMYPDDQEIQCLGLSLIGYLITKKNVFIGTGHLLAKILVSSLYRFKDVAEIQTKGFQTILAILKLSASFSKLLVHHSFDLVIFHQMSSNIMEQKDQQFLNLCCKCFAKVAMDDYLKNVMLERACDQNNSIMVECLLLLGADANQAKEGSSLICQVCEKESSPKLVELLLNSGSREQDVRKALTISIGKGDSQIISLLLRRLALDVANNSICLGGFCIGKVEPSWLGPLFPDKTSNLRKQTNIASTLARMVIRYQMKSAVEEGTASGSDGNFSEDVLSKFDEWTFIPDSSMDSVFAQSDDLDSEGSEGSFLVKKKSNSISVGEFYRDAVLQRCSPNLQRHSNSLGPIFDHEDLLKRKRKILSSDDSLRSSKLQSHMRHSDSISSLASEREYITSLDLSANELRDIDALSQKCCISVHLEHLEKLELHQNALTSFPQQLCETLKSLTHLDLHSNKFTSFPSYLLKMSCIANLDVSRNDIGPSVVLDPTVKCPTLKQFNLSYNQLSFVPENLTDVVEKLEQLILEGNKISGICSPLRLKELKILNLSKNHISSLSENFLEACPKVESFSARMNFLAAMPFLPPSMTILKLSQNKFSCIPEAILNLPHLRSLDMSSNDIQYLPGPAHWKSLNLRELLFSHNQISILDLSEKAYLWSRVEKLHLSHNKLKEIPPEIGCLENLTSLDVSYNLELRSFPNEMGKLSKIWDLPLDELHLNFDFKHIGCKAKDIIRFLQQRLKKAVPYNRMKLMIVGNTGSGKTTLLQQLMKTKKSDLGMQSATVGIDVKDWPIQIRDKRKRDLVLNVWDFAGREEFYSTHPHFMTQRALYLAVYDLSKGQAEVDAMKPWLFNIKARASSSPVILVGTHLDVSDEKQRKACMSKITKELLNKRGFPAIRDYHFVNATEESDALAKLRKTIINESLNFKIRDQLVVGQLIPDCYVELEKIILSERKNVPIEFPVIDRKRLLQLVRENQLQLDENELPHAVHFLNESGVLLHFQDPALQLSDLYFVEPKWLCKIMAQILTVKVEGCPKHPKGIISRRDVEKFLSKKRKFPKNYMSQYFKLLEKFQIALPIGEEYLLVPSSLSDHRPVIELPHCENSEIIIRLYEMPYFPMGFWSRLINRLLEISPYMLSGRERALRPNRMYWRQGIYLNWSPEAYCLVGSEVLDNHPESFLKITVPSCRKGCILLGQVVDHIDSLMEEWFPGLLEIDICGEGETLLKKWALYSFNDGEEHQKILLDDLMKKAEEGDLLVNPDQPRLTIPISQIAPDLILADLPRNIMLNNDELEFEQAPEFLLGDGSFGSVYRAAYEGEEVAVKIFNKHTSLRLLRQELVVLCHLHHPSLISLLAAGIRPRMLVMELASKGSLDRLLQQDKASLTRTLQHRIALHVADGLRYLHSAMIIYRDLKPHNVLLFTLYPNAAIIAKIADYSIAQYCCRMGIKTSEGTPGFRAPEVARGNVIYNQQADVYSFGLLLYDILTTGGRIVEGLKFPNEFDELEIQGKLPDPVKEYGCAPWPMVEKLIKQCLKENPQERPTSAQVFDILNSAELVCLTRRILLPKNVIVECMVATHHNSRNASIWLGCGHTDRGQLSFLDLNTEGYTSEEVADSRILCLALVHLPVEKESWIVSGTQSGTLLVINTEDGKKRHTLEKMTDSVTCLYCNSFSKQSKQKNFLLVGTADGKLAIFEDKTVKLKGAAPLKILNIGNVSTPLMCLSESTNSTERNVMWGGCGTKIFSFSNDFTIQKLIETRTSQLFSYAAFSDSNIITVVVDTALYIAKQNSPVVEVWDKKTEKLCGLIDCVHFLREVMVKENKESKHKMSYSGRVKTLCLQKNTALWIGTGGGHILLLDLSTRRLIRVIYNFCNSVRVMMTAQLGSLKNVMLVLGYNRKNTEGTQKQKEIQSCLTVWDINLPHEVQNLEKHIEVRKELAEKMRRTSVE
Excerpt: (§1) Exemplary Assay for Testing LRRK2 Degradation Driven by Exemplary Hetero-Bifunctional Compounds Designed to Target LRRK2
(§2) The assay measures the degradation of wildtype and G2019S LRRK2 tagged with a HiBit tag on the C-terminus of the protein that was expressed from a mammalian expression vector, driven by the ubiquitin promoter in HEK293 cells. Each compound dose-response was repeated on two separate days, on three separate plates each day.
(§3) Plasmid Preparation. Transfection mixes were assembled as follows and incubated for 30 minutes at room temperature. In a 15 mL tube, 5.25 mL Opti-MEM (no additions) was mixed with 17 μL Firefly Luciferase plasmid at 1 μg/μL and 158 μL WT plasmid DNA at 1 μg/μL (175 μg total DNA) were mixed by flicking. In a new 15 mL tube, 5.25 mL OptiMEM was mixed with 17 μL Firefly Luciferase plasmid at 1 μg/μL and 158 μL G2019S plasmid DNA at 1 μg/μL (175 μg total DNA) were mixed by flicking. X-tremeGene HP was mixed thoroughly using a vortex. Next, 175 μL was added to each tube and flicked to mix. Both tubes were left to incubate for 30 minutes at room temperature.
(§4) While the transfection mixes were incubating, HEK293 cells (acquired from ATCC; ATCC CRL-1573) were harvested with trypsin. Once cells are detached, the cells were resuspended in 12 mL OptiMEM+5% FBS and transferred to a 50 mL tube. The cells were mixed well and counted. Using OptiMEM+5% FBS, the cells were diluted in two 250 mL conical tubes at 0.71×10^6 cells/mL in 70 mL. One tube was labeled “WT” and the other “G2019S”. The WT and G2019S transfection mixes were added dropwise to the corresponding 250 mL tubes. The tubes were mixed first by pipetting then by swirling. The tubes were incubated at room temperature for at least 5 minutes.
(§5) Each tube was swirled before dispensing and after every three plates. Seventy microliters of cells were dispensed with WT or G2019S DNA to seven plates each. Three plates of each were tested with compound plate one (preparation described below) and three plates of each were tested with compound plate two (preparation described below). The first plate from each set served as a “prime” plate and was not used to test compounds. Each plate was incubated in the hood for 10 minutes before placing in the 37° C. incubator for 24 hours.
(§6) Preparation of Compound and Assay Plates. Two compound plates were made using 96 well polypropylene plates. Compounds were made up at 10 mM and were diluted to 1 mM in 30 μL. Each dose response curve included a well of DMSO, as a negative control and for normalization, and a well of 0.5 μM of Compound 4 as a positive control. In addition to seven test compounds, each plate also included a dose response of Compound 4. The compound plates were spun down along at 1200 rpm for 2 minutes.
(§7) The two compound plates were then mixed and 2 μL was diluted in intermediate plates having 248 μL of Opti-Mem in each well. Next, 10 μL diluted compounds from the intermediate plates were added to each test plate (three WT and three G2019S plates per compound plate for a total of 12 assay plates). The plates were incubated for 24 hours at 37° C.
(§8) All assay plates and all Nano-Glo Dual-Luciferase Reporter Assay System components (except for the DLR substrate) were equilibrated to room temperature. Next, the luciferase buffer was mixed with the lyophilized amber bottle until fully dissolved, and 75 μL of the luciferase mixture was added to each well of each assay plate. The assay plates were incubated for 10 minutes at room temperature with shaking for at least 5 minutes, and then read on a plate reader.
(§9) Developing Plates and Analyzing Data. One milliliter of DLR substrate and 1 mL LgBiT Protein were added to the Stop and Glo buffer, and 75 μL of the mixture was added to each well of each plate. Optically clear seals were added to each plate and each plate was incubated for 20 minutes with shaking for at least 10 minutes, and then read on a plate reader. […]

wildtype LRRK2 = target: T2, wildtype LRRK2 (Homo sapiens, UniProt Q5S007); experiment: LRRK2 degradation assay, HiBit-tagged wildtype LRRK2 expressed from plasmid in HEK293 cells (Nano-Glo Dual-Luciferase); type: cell-based; conditions: HiBit-tagged wildtype LRRK2 in HEK293 cells, 24 hours; for Dmax: read-out: **WT Dmax (%); for DC50: read-out: *WT DC50
T2 construct: expressed in transfected cells; host or cells: HEK293 (ATCC CRL-1573), transient transfection, mammalian expression vector with ubiquitin promoter
T2 sequence (Q5S007 whole entry): as the sequence (Q5S007 whole entry G2019S) above, with S2019G counted along it
Excerpt: as §1, §2, §3, §4, §5, §6, §7, §8, §9

DC50 (G2019S LRRK2) [nM]	Dmax (G2019S LRRK2) [%]	Dmax (wildtype LRRK2) [%]	DC50 (wildtype LRRK2) [nM]	Compound
< 10	≥ 70	≥ 70	< 10	CC1(Oc2ccc3[nH]nc(-c4cc(N5CCC(CN=S6(=O)CCN(CC7CCN(c8ccc9c(c8)C(=O)N(C8CCC(=O)NC8=O)C9=O)CC7)CC6)CC5)ncn4)c3c2)CC1 (stereo not drawn) [Compound 63, 2-(2,6-dioxo-3-piperidyl)-5-[4-[[1-[[1-[6-[5-(1-methylcyclopropoxy)-1H-indazol-3-yl]pyrimidin-4-yl]-4-piperidyl]methylimino]-1-oxo-1,4-thiazinan-4-yl]methyl]-1-piperidyl]isoindoline-1,3-dione]
< 10	≥ 70	≥ 70	< 10	CC1(Oc2ccc3n[nH]c(-c4cc(N5CCC(CN6CCC(CN7CCN(c8ccc9c(c8)C(=O)N(C8CCC(=O)NC8=O)C9=O)CC7)CC6)CC5)ncn4)c3c2)CC1 (stereo not drawn) [Compound 67, 2-(2,6-dioxo-3-piperidyl)-5-[4-[[1-[[1-[6-[5-(1-methylcyclopropoxy)-2H-indazol-3-yl]pyrimidin-4-yl]-4-piperidyl]methyl]-4-piperidyl]methyl]piperazin-1-yl]isoindoline-1,3-dione]
< 10	< 50	< 50	< 10	C[C@H]1CN(c2cc(-c3n[nH]c4ccc(OC5(C)CC5)cc34)ncn2)CCN1CC1CCN(CC2(F)CCN(c3ccc4c(c3)C(=O)N(C3CCC(=O)NC3=O)C4=O)CC2)CC1 (stereo partly drawn) [Compound 70, 2-(2,6-dioxo-3-piperidyl)-5-[4-fluoro-4-[[4-[[(2S)-2-methyl-4-[6-[5-(1-methylcyclopropoxy)-1H-indazol-3-yl]pyrimidin-4-yl]piperazin-1-yl]methyl]-1-piperidyl]methyl]-1-piperidyl]isoindoline-1,3-dione]
< 10	< 50	50 to 70	< 10	C[C@H]1CN(c2cc(-c3n[nH]c4cc(F)c(OC5(C)CC5)cc34)ncn2)CCN1CC1CCN(CC2CCN(c3ccc4c(c3)C(=O)N(C3CCC(=O)NC3=O)C4=O)CC2)CC1 (stereo partly drawn) [Compound 71, 2-(2,6-dioxopiperidin-3-yl)-5-{4-[(4-{[(2S)-4-{6-[6-fluoro-5-(1-methylcyclopropoxy)-1H-indazol-3-yl]pyrimidin-4-yl}-2-methylpiperazin-1-yl]methyl}piperidin-1-yl)methyl]piperidin-1-yl}-2,3-dihydro-1H-isoindole-1,3-dione]
10 to 50	50 to 70	50 to 70	10 to 50	C[C@H]1CN(c2cc(-c3n[nH]c4ccc(OC5CC5)cc34)ncn2)CCN1CC1CCN(CC2CCN(c3ccc4c(c3)C(=O)N(C3CCC(=O)NC3=O)C4=O)CC2)CC1 (stereo partly drawn) [Compound 72, 5-{4-[(4-{[(2S)-4-[6-(5-cyclopropoxy-1H-indazol-3-yl)pyrimidin-4-yl]-2-methylpiperazin-1-yl]methyl}piperidin-1-yl)methyl]piperidin-1-yl}-2-(2,6-dioxopiperidin-3-yl)-2,3-dihydro-1H-isoindole-1,3-dione]
< 10	< 50	< 50	< 10	C[C@H]1CN(c2cc(-c3n[nH]c4ccc(OC5(C)CC5)cc34)ncn2)CCN1CC1CCN(CC2CCN(c3cc4c(cc3F)C(=O)N(C3CCC(=O)NC3=O)C4=O)CC2)CC1 (stereo partly drawn) [Compound 73, 2-(2,6-dioxo-3-piperidyl)-5-fluoro-6-[4-[[4-[[(2S)-2-methyl-4-[6-[5-(1-methylcyclopropoxy)-2H-indazol-3-yl]pyrimidin-4-yl]piperazin-1-yl]methyl]-1-piperidyl]methyl]-1-piperidyl]isoindoline-1,3-dione]
50 to 100	< 50	50 to 70	50 to 100	CC1(Oc2ccc3[nH]nc(-c4cc(N5C[C@@H]6[C@H](CN7CCN(CC8CCN(c9ccc%10c(c9)C(=O)N(C9CCC(=O)NC9=O)C%10=O)CC8)CC7)[C@@H]6C5)ncn4)c3c2)CC1 (stereo partly drawn) [Compound 74, 2-(2,6-dioxo-3-piperidyl)-5-[4-[[4-[[(r, 5s, 6s)-3-[6-[5-(1-methylcyclopropoxy)-1H-indazol-3-yl]pyrimidin-4-yl]-3-azabicyclo[3.1.0]hexan-6-yl]methyl]piperazin-1-yl]methyl]-1-piperidyl]isoindoline-1,3-dione]
< 10	≥ 70	≥ 70	< 10	CC1(Oc2ccc3[nH]nc(-c4cc(N5C[C@@H]6[C@@H](CN7CCN(CC8CCN(c9ccc%10c(c9)C(=O)N(C9CCC(=O)NC9=O)C%10=O)CC8)CC7)[C@@H]6C5)ncn4)c3c2)CC1 (stereo partly drawn) [Compound 75, 2-(2,6-dioxopiperidin-3-yl)-5-{4-[(4-{[(1r,5s,6s)-3-{6-[5-(1-methylcyclopropoxy)-1H-indazol-3-yl]pyrimidin-4-yl}-3-azabicyclo[3.1.0]hexan-6-yl]methyl}piperazin-1-yl)methyl]piperidin-1-yl}-2,3-dihydro-1H-isoindole-1,3-dione]
< 10	50 to 70	< 50	< 10	CC1(Oc2ccc3[nH]nc(-c4cc(N5CCN(CC6CCN(CC7CCN(c8ccc9c(c8)C(=O)N(C8CCC(=O)NC8=O)C9=O)CC7)CC6)CC5)ncn4)c3c2)CC1 (stereo not drawn) [Compound 76, 2-(2,6-dioxo-3-piperidyl)-5-[4-[[4-[[4-[6-[5-(1-methylcyclopropoxy)-1H-indazol-3-yl]pyrimidin-4-yl]piperazin-1-yl]methyl]-1-piperidyl]methyl]-1-piperidyl]isoindoline-1,3-dione]
< 10	50 to 70	50 to 70	< 10	CC1(Oc2ccc3[nH]nc(-c4ccnc(N5CCC(CN6CCN(CC7CCN(c8ccc9c(c8)C(=O)N(C8CCC(=O)NC8=O)C9=O)CC7)CC6)CC5)c4)c3c2)CC1 (stereo not drawn) [Compound 78, 2-(2,6-dioxo-3-piperidyl)-5-[4-[[4-[[1-[4-[5-(1-methylcyclopropoxy)-1H-indazol-3-yl]-2-pyridyl]-4-piperidyl]methyl]piperazin-1-yl]methyl]-1-piperidyl]isoindoline-1,3-dione]
< 10	50 to 70	< 50	< 10	CC1(Oc2ccc3[nH]nc(-c4cc(N5CCN(CC6(F)CCN(CC7CCN(c8ccc9c(c8)C(=O)N(C8CCC(=O)NC8=O)C9=O)CC7)CC6)CC5)ncn4)c3c2)CC1 (stereo not drawn) [Compound 79, 2-(2,6-dioxo-3-piperidyl)-5-[4-[[4-fluoro-4-[[4-[6-[5-(1-methylcyclopropoxy)-1H-indazol-3-yl]pyrimidin-4-yl]piperazin-1-yl]methyl]-1-piperidyl]methyl]-1-piperidyl]isoindoline-1,3-dione]
< 10	50 to 70	< 50	< 10	CC1(Oc2ccc3[nH]nc(-c4ccnc(N5CCN(CC6(F)CCN(CC7CCN(c8ccc9c(c8)C(=O)N(C8CCC(=O)NC8=O)C9=O)CC7)CC6)CC5)c4)c3c2)CC1 (stereo not drawn) [Compound 80, 2-(2,6-dioxo-3-piperidyl)-5-[4-[[4-fluoro-4-[[4-[4-[5-(1-methylcyclopropoxy)-1H-indazol-3-yl]-2-pyridyl]piperazin-1-yl]methyl]-1-piperidyl]methyl]-1-piperidyl]isoindoline-1,3-dione]
